Assay results published in PubChem BioAssay AID1259411 (Chemical Carcinogenesis Research Information System (CCRIS), 2018).
Active and inactive are the calls of the source. How the calls were made is not given here.

Tested on: rodent carcinogenicity bioassays, tumor incidence
Assay: CCRIS carcinogenicity studies
In short: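 Archive of carcinogenicity, mutagenicity, tumor promotion and tumor inhibition results drawn from journals, NCI reports and other sources, expert-reviewed; covers 1985-2011 and is no longer updated.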

O=[N+]([O-])c1ccc(-c2cscn2)o1
carcinogen call (Species: RAT, Strain/Sex: SPRAGUE-DAWLEY/FEMALE, Route: ORAL, Dose: 0, 1540 PPM IN DIET FOR 46 WK (TOTAL DOSE: 42 MMOL/RAT) (STUDY DURATION: 68 WK), Tumor Site: Type of Lesion: MAMMARY GLAND: FIBROADENOMA, FORESTOMACH: SQUAMOUS CELL CARCINOMA): active; positive

C=COC(N)=O
carcinogen call (Species: MOUSE, Strain/Sex: B6C3F1/MALE, Route: INTRAPERITONEAL, Dose: 0, 2.5 UG/G BW IN 10 µL TRIOCTANOIN ONCE (STUDY DURATION: 9 MO), Tumor Site: Type of Lesion: LIVER: HEPATOMA): active; positive | carcinogen call (Species: MOUSE, Strain/Sex: CD-1/FEMALE, Route: DERMAL, Dose: 0, 11.5 UMOL IN WEEKS 1 AND 2 THEN 5.7 UMOL IN WEEKS 3 AND 4 FOLLOWED BY 3.8 UMOL/WK FOR 28 WK (STUDY DURATION: 42 WK), Tumor Site: Type of Lesion: SKIN: PAPILLOMA, CARCINOMA): active; positive | carcinogen call (Species: MOUSE, Strain/Sex: STRAIN-A/FEMALE, Route: INTRAPERITONEAL, Dose: 0, 34, 68 NMOL/G BW IN 5 µL TRIOCTANOIN ONCE (STUDY DURATION: 6 MO), Dose: 0, 34, 68 NMOL/G BW IN 5 µL TRIOCTANOIN ONCE (STUDY DURATION: 6 MO), Tumor Site: Type of Lesion: LUNG: ADENOMA): active; positive | carcinogen call (Species: RAT, Strain/Sex: SPRAGUE-DAWLEY/FEMALE, Route: INTRAMUSCULAR, Dose: 0, 1.15, 2.3 UMOL IN 0.25 ML TRIOCTANOIN 1/WK FOR 10 WK (STUDY DURATION: 18 MO), Dose: 0, 1.15, 2.3 UMOL IN 0.25 ML TRIOCTANOIN 1/WK FOR 10 WK (STUDY DURATION: 18 MO)): inactive; negative

O=[N+]([O-])c1ccccc1Cl
carcinogen call (Species: MOUSE, Strain/Sex: CD-1/FEMALE, Route: ORAL, Dose: 3000, 6000 MG/KG IN DIET FOR 18 MO, Tumor Site: Type of Lesion: LIVER: HEPATOCELLULAR CARCINOMA): active; positive

Nc1ccc2c(n1)[nH]c1ccccc12
carcinogen call (Species: MOUSE, Strain/Sex: CDF1/FEMALE, Route: ORAL, Dose: 0, 0.08% IN DIET FOR UP TO 685 D (STUDY DURATION: 685 D), Tumor Site: Type of Lesion: LIVER: HEPATOCELLULAR ADENOMA OR CARCINOMA, BLOOD VESSELS: HEMANGIOENDOTHELIAL SARCOMA): active; positive | carcinogen call (Species: MOUSE, Strain/Sex: CDF1/MALE, Route: ORAL, Dose: 0, 0.08% IN DIET FOR UP TO 685 D (STUDY DURATION: 685 D), Tumor Site: Type of Lesion: LIVER: HEPATOCELLULAR ADENOMA OR CARCINOMA, BLOOD VESSELS: HEMANGIOENDOTHELIOMA OR HEMANGIOENDOTHELIAL SARCOMA): active; positive | carcinogen call (Species: RAT, Strain/Sex: SPRAGUE-DAWLEY/FEMALE, Route: ORAL, Dose: 0, 75 MG/KG IN 5 ML CORN OIL 1/D ON DAYS 43-47 AND 50-54 OF AGE ADMINISTERED TO RATS PLACED ON HIGH-FAT (23.5% CORN OIL)): inactive; negative

CN(C)c1ccc(C(=C2C=CC(=[N+](C)C)C=C2)c2ccc(N(C)C)cc2)cc1
carcinogen call (Species: MOUSE, Strain/Sex: B6C3F1/FEMALE, Route: ORAL, Dose: 0, 100, 300, 600 PPM IN DIET FOR 104 WK (STUDY DURATION: 2 YR), Dose: 0, 100, 300, 600 PPM IN DIET FOR 104 WK (STUDY DURATION: 2 YR), Tumor Site: Type of Lesion: LIVER: MALIGNANT NEOPLASM, HARDERIAN GLAND: ADENOMA, UTERUS: TYPE-A RETICULUM CELL SARCOMA, OVARIES: TYPE-A RETICULUM CE, Tumor Site: Type of Lesion: LIVER: MALIGNANT NEOPLASM, HARDERIAN GLAND: ADENOMA, UTERUS: TYPE-A RETICULUM CELL SARCOMA, OVARIES: TYPE-A RETICULUM CE): active; positive | carcinogen call (Species: MOUSE, Strain/Sex: B6C3F1/MALE, Route: ORAL, Dose: 0, 100, 300, 600 PPM IN DIET FOR 104 WK (STUDY DURATION: 2 YR), Dose: 0, 100, 300, 600 PPM IN DIET FOR 104 WK (STUDY DURATION: 2 YR), Tumor Site: Type of Lesion: LIVER: MALIGNANT NEOPLASM, HARDERIAN GLAND: ADENOMA): active; positive | carcinogen call (Species: RAT, Strain/Sex: F344/FEMALE, Route: ORAL, Dose: 0, 100, 300, 600 PPM IN FEED FOR 24 MO (STUDY DURATION: 24 MO), Dose: 0, 100, 300, 600 PPM IN FEED FOR 24 MO (STUDY DURATION: 24 MO), Tumor Site: Type of Lesion: LIVER: HEPATOCELLULAR ADENOMA, THYROID GLAND: FOLLICULAR CELL ADENOCARCINOMA): active; positive | carcinogen call (Species: RAT, Strain/Sex: F344/MALE, Route: ORAL, Dose: 0, 100, 300, 600 PPM IN FEED FOR 24 MO (STUDY DURATION: 24 MO), Dose: 0, 100, 300, 600 PPM IN FEED FOR 24 MO (STUDY DURATION: 24 MO), Tumor Site: Type of Lesion: LIVER: HEPATOCELLULAR ADENOMA, THYROID GLAND: FOLLICULAR CELL ADENOCARCINOMA): active; positive

CCSCC[C@H](N)C(=O)O
carcinogen call (Species: RAT, Strain/Sex: SPRAGUE-DAWLEY/MALE,FEMALE, Route: ORAL, Dose: 0.25% IN DIET FOR 38 WK (AVE), Tumor Site: Type of Lesion: LIVER: CARCINOMA): active; positive | carcinogen call (Species: RAT, Strain/Sex: SPRAGUE-DAWLEY/MALE, Route: ORAL, Dose: 0, 0.05% IN CHOLINE-FREE DIET FOR 12 MO (STUDY DURATION: 12 MO), Tumor Site: Type of Lesion: LIVER: HEPATOCELLULAR CARCINOMA): active; positive | carcinogen call (Species: RAT, Strain/Sex: SPRAGUE-DAWLEY/MALE, Route: ORAL, Dose: 0, 0.1% IN CHOLINE-FREE DIET FOR 12 MO (STUDY DURATION: 12 MO)): inactive; negative | carcinogen call (Species: RAT, Strain/Sex: STRAIN-CD/MALE, Route: ORAL, Dose: 0.2% IN NONTOXIC PEANUT MEAL DIET FOR 380 D, Tumor Site: Type of Lesion: LIVER): active; positive

NNC(N)=S
carcinogen call (Species: MOUSE, Strain/Sex: SWISS/FEMALE, Route: ORAL, Dose: 0, 156, 312 PPM IN DRINKING WATER DAILY FOR LIFE (STUDY DURATION: 130-140 WK), Dose: 0, 156, 312 PPM IN DRINKING WATER DAILY FOR LIFE (STUDY DURATION: 130-140 WK)): inactive; negative | carcinogen call (Species: MOUSE, Strain/Sex: SWISS/MALE, Route: ORAL, Dose: 0, 156, 312 PPM IN DRINKING WATER DAILY FOR LIFE (STUDY DURATION: 130-140 WK), Dose: 0, 156, 312 PPM IN DRINKING WATER DAILY FOR LIFE (STUDY DURATION: 130-140 WK)): inactive; negative

O=C(O)c1nn(Cc2ccc(Cl)cc2Cl)c2ccccc12
carcinogen call (Species: RAT, Strain/Sex: SPRAGUE-DAWLEY/FEMALE, Route: ORAL, Dose: 0, 20, 60, 180 MG/KG/D IN DIET FOR 2 YR (STUDY DURATION: 2 YR), Dose: 0, 20, 60, 180 MG/KG/D IN DIET FOR 2 YR (STUDY DURATION: 2 YR)): inactive; negative | carcinogen call (Species: RAT, Strain/Sex: SPRAGUE-DAWLEY/MALE, Route: ORAL, Dose: 0, 20, 60, 180 MG/KG/D IN DIET FOR 2 YR (STUDY DURATION: 2 YR), Dose: 0, 20, 60, 180 MG/KG/D IN DIET FOR 2 YR (STUDY DURATION: 2 YR)): inactive; negative

CC(=O)O
carcinogen call (Species: MOUSE, Strain/Sex: SWISS/FEMALE, Route: ORAL, Dose: 0, 5 PPM IN DRINKING WATER FOR DURATION OF STUDY (STUDY DURATION: LIFE SPAN)): inactive; negative | carcinogen call (Species: MOUSE, Strain/Sex: SWISS/MALE, Route: ORAL, Dose: 0, 5 PPM IN DRINKING WATER FOR DURATION OF STUDY (STUDY DURATION: LIFE SPAN)): inactive; negative

O=[N+]([O-])c1ccc2c(ccc3c4ccccc4ccc23)c1
carcinogen call (Species: MOUSE, Strain/Sex: ICR/FEMALE, Route: INTRAPERITONEAL, Dose: 0, 100 NMOL (TOTAL DOSE) ADMINISTERED IN 3 SUBDOSES OF 1/7, 2/7, AND 4/7 ON DAYS 1, 8 AND 15 OF LIFE, RESPECTIVELY (STUD): inactive; negative | carcinogen call (Species: MOUSE, Strain/Sex: ICR/MALE, Route: INTRAPERITONEAL, Dose: 0, 100 NMOL (TOTAL DOSE) ADMINISTERED IN 3 SUBDOSES OF 1/7, 2/7, AND 4/7 ON DAYS 1, 8 AND 15 OF LIFE, RESPECTIVELY (STUD): inactive; negative

CC1=C[C@H]2O[C@@H]3[C@H](O)C[C@](C)([C@@]2(CO)[C@H](O)C1=O)[C@]31CO1
carcinogen call (Species: MOUSE, Strain/Sex: B6C3F1/FEMALE, Route: ORAL, Dose: 0, 1, 5, 10 PPM IN DIET FOR 2 YR (STUDY DURATION: 2 YR), Dose: 0, 1, 5, 10 PPM IN DIET FOR 2 YR (STUDY DURATION: 2 YR)): inactive; negative | carcinogen call (Species: MOUSE, Strain/Sex: B6C3F1/MALE, Route: ORAL, Dose: 0, 1, 5, 10 PPM IN DIET FOR 2 YR (STUDY DURATION: 2 YR), Dose: 0, 1, 5, 10 PPM IN DIET FOR 2 YR (STUDY DURATION: 2 YR)): inactive; negative
